In US7585891B2, “Pesticidal (dihalopropenyl)phenylalkyl substituted benzodioxolane and benzodioxole derivatives” (FMC Corporation, priority 2003, dated 2009):

Columns and labels:
[1] = system: tobacco budworm (Heliothis virescens [Fabricius]); assay: surface-treated diet test against tobacco budworm; type: in vivo; conditions: 0.25 millimolar on the surface of the diet, second instar larvae, five-day exposure; for Percent Growth Inhibition: insect weight relative to untreated controls
Text: The test compounds of formula I are identified by numbers that correspond to those in Table 1.

tobacco budworm = assay: foliar treated test against tobacco budworm on chick pea plants; type: in vivo, Heliothis virescens; conditions: 96 hour exposure, dead plus moribund insects
Procedure: Certain compounds of formula I were tested against tobacco budworm on plant foliage. The foliar treated test against tobacco budworm were conducted in the following manner:
Nine-to-ten day-old chick pea plants (Cicer arietinum) were sprayed at 15 psi to runoff on both upper and lower leaf surfaces with solutions of test compound to provide application rates as high as 1000 ppm of test chemical. The solvent used to prepare the solutions of test compound was 10% acetone or methanol (v/v) and 0.1% of the surfactant octylphenoxypolyethoxyethanol in distilled water. Four replicates, each containing one chick pea plant, for each rate of application of test compound were sprayed. The treated plants were transferred to a hood where they were kept until the spray had dried.
The four chick pea plants for each replicate treated with test compound as described above were removed from their pots by cutting the stems just above the soil line. The excised leaves and stems from the four plants in each replicate were placed in individual 237 mL (8-ounce) paper cups, which contained a moistened filter paper. Five second-instar tobacco budworm (7 days old) were counted into each cup, taking care not to cause injury. An opaque plastic lid was placed on each cup, which was then held in a growth chamber for a 96 hour exposure period at 25° C., 50% relative humidity and photo-period of 12 hours light and 12 hours dark. At the end of the 96 hour exposure period the cups were opened, and the numbers of dead, moribund, and live insects were counted. Using the insect counts, the efficacy of the test compound was expressed in percent control. Percent control is derived from the total number of dead insects (TD) plus the total number of moribund insects (TM) as compared to the total number of insects (TI) in the test:
The condition of the test plants was also observed for phytotoxicity and for reduction of feeding damage as compared to an untreated control.

[2] = 10 ppm foliar spray on chick pea
[3] = 30 ppm foliar spray on chick pea

Row | SMILES | Percent Growth Inhibition [1] | Percent Control (tobacco budworm; [2]) | Percent Control (tobacco budworm; [3]) | Percent Mortality [1]
1 | CC1(C)Oc2cccc(OCCCCOc3c(Cl)cc(OCC=C(Cl)Cl)cc3Cl)c2O1 [Compound 2, 5-(3,3-Dichloroprop-2-enyloxy)-2-[4-(2,2-dimethylbenzo[d]1,3-dioxolan-4-yloxy)butoxy]-1,3-dichlorobenzene] | 100% | 85% | 100% | –
2 | CC1(C)Cc2cc(Cl)cc(OCCOc3c(Cl)cc(OCC=C(Cl)Cl)cc3Cl)c2O1 [Compound 1] | – | – | 70% | –
3 | FC1(F)Oc2ccc(OCCCCOc3c(Cl)cc(OCC=C(Cl)Cl)cc3Cl)cc2OC1(F)F [Compound 9, 5-(3,3-Dichloroprop-2-enyloxy)-1,3-dichloro-2-[4-(2,2,3,3-tetrafluorobenzo[3,4-e]1,4-dioxan-6-yloxy)butoxy]benzene] | 100% | – | 100% | 100%
4 | CC1(C)Oc2ccc(OCCCCOc3c(Cl)cc(OCC=C(Cl)Cl)cc3Cl)cc2O1 [Compound 4, 5-{4-[4-(3,3-dichloroprop-2-enyloxy)-2,6-dichlorophenoxy]butoxy}-2,2-dimethylbenzo[d]1,3-dioxolane] | 100% | 83% | 100% | –
